Measurements: US20260200928A1, “THERAPEUTIC COMPOUNDS” (Sanofi, priority 2022, published 2026)

Target: T1, human IL-17A (Homo sapiens, UniProt Q16552)
T1 construct: purchased R&D Systems 7955-IL/CF
T1 sequence (Q16552 24-155): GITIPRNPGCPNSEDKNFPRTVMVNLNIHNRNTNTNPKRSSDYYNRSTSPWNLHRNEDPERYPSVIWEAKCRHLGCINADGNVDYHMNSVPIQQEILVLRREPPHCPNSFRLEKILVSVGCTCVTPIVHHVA
Test: IL-17A AlphaLISA competition assay (block of IL-17A binding to its receptor IL-17RA)
Conditions: mean IC50 (n≥2), block of IL-17A binding to IL-17RA
Outline: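 Bead-based AlphaLISA competition in PBS with 0.05% Tween-20 and 0.1% BSA: compound first meets human IL-17A (7.5 nM stock) for 30 min, then IL-17RA/Fc (5 nM stock) for 90 min, all at room temperature, before acceptor/donor bead capture. IC50 fitted 4-parameter, DMSO and 4 μM reference inhibitor as controls; at least duplicate.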

| SMILES | IC50 [nM] |
| --- | --- |
| CCc1oncc1C(=O)NC(C(=O)Nc1cc([C@@H](COC)N2CC(F)(F)CNC2=O)ccn1)C1CCC(F)(F)CC1 (stereo in doubt) [Example 176, N—((S)-2-((4-((S)-1-(5,5-difluoro-2-oxotetrahydropyrimidin-1(2H)-yl)-2-methoxyethyl)pyridin-2-yl)amino)-1-(4,4-difluorocyclohexyl)-2-oxoethyl)-5-ethylisoxazole-4-carboxamide] | 57 |
| C[C@H]1CC[C@H]([C@H](NC(=O)NCc2ccccc2)C(=O)Nc2cc(CN3C[C@@H](C(F)(F)F)NC3=O)ccn2)CC1 [Example 97, (S)-2-(3-Benzylureido)-2-((1r,4S)-4-methylcyclohexyl)-N-(4-(((S)-2-oxo-4-(trifluoromethyl)imidazolidin-1-yl)methyl)pyridin-2-yl)acetamide] | 2080 |
| CCn1nccc1C(=O)N[C@H](C(=O)Nc1cc([C@@H](COC)N2C[C@@H](C(F)(F)F)NC2=O)ccn1)C1CCC(C(F)(F)F)CC1 (stereo partly drawn) [Example 301, 1-ethyl-N-((1S)-2-((4-((S)-2-methoxy-1-((S)-2-oxo-4-(trifluoromethyl)imidazolidin-1-yl)ethyl)pyridin-2-yl)amino)-2-oxo-1-(4-(trifluoromethyl)-cyclohexyl)ethyl)-1H-pyrazole-5-carboxamide] | 38 |
| CCc1oncc1C(=O)N[C@H](C(=O)Nc1cc([C@@H](COC)N2C[C@@H](C(F)(F)F)NC2=O)ccn1)[C@@H]1C[C@H]2C[C@H]2C1 [Example 318, N—((S)-1-((1R,3s,5S)-bicyclo[3.1.0]hexan-3-yl)-2-((4-((S)-2-methoxy-1-((S)-2-oxo-4-(trifluoromethyl)imidazolidin-1-yl)ethyl)pyridin-2-yl)amino)-2-oxoethyl)-5-ethylisoxazole-4-carboxamide] | 64 |
| COCC(c1ccnc(NC(=O)C(NC(=O)C(F)(F)c2cccc(Cl)c2)C2CCC(C)CC2)c1)N1CC(C(F)(F)F)NC1=O (single isomer, unassigned) [Example 249] | 49 |
| COCC(c1ccnc(NC(=O)C(NC(=O)C(F)(F)c2ccc(OC)nc2)C2CCC(C)CC2)c1)N1CC(C(F)(F)F)NC1=O (single isomer, unassigned) [Example 252] | 49 |
| CC(C)n1nccc1C(=O)N[C@H](C(=O)Nc1cc(CN2C[C@@H](C(F)(F)F)NC2=O)ccn1)C1CCC(F)(F)CC1 [Example 12, N-((S)-1-(4,4-difluorocyclohexyl)-2-oxo-2-((4-(((S)-2-oxo-4-(trifluoromethyl)imidazolidin-1-yl)methyl)pyridin-2-yl)amino)ethyl)-1-isopropyl-1H-pyrazole-5-carboxamide] | 106 |
| CC(C)n1nccc1C(=O)N[C@H](C(=O)Nc1cc(CN2C[C@@H](C(F)(F)F)NC2=O)ccn1)[C@@H](C)OC(C)(C)C [Example 127, N-((2S,3R)-3-(tert-butoxy)-1-oxo-1-((4-(((S)-2-oxo-4-(trifluoromethyl)-imidazolidin-1-yl)methyl)-pyridin-2-yl)amino)butan-2-yl)-1-isopropyl-1H-pyrazole-5-carboxamide] | 440 |
| CCC(c1ccnc(NC(=O)C(NC(=O)c2ccnn2C(C)C)C2CCC(C)CC2)c1)N1CC(C(F)(F)F)NC1=O [Example 260, 1-isopropyl-N-((S)-1-((1r,4S)-4-methylcyclohexyl)-2-oxo-2-((4-((R)-1-((S)-2-oxo-4-(trifluoromethyl)imidazolidin-1-yl)propyl)pyridin-2-yl)amino)ethyl)-1H-pyrazole-5-carboxamide] | 13 |
| COC[C@H](c1ccnc(NC(=O)[C@@H](NC(=O)C(C)c2cccc(C#N)c2)C2CCC(F)(F)CC2)c1)N1C[C@@H](C(F)(F)F)NC1=O (stereo partly drawn) [Example 205, 2-(3-cyanophenyl)-N-((S)-1-(4,4-difluorocyclohexyl)-2-((4-((S)-2-methoxy-1-((S)-2-oxo-4-(trifluoromethyl)imidazolidin-1-yl)ethyl)pyridin-2-yl)amino)-2-oxoethyl) propanamide] | 347 |
| CCc1nocc1C(=O)N[C@H](C(=O)Nc1cc([C@@H](COC)N2C[C@@H](C(F)(F)F)NC2=O)ccn1)C1CCC(F)(F)CC1 [Example 198, N-((S)-1-(4,4-difluorocyclohexyl)-2-((4-((S)-2-methoxy-1-((S)-2-oxo-4-(trifluoromethyl)imidazolidin-1-yl)ethyl)pyridin-2-yl)amino)-2-oxoethyl)-3-ethylisoxazole-4-carboxamide] | 47 |
| CCc1nocc1C(=O)N[C@H](C(=O)Nc1cc([C@@H](CC)N2C[C@@H](C(F)(F)F)NC2=O)ccn1)C1CCC(F)(F)CC1 [Example 210, N-((S)-1-(4,4-difluorocyclohexyl)-2-oxo-2-((4-((R)-1-((S)-2-oxo-4-(trifluoromethyl)imidazolidin-1-yl)propyl)pyridin-2-yl)amino)ethyl)-3-ethylisoxazole-4-carboxamide] | 38 |
| C[C@@H](OC(C)(C)C)[C@@H](NC(=O)OCc1ccccc1)C(=O)Nc1cc(CN2C[C@@H](C(F)(F)F)NC2=O)ccn1 [Example 100, Benzyl ((2R,3R)-3-(tert-butoxy)-1-oxo-1-((4-(((S)-2-oxo-4-(trifluoromethyl)imidazolidin-1-yl)methyl)pyridin-2-yl)amino)butan-2-yl)carbamate] | 17400 |

Continued by falling IC50, values first:

| IC50 [nM] | SMILES |
| --- | --- |
| 5790 | Cc1cn([C@H](C)c2ccnc(NC(=O)[C@@H](NC(=O)c3nonc3C3CC3)C3CCC(F)(F)CC3)c2)c(=O)[nH]1 [Example 168, 4-Cyclopropyl-N—((S)-1-(4,4-difluorocyclohexyl)-2-((4-((R)-1-(4-methyl-2-oxo-2,3-dihydro-1H-imidazol-1-yl)ethyl)pyridin-2-yl)amino)-2-oxoethyl)-1,2,5-oxadiazole-3-carboxamide] |
| 3340 | O=C(CCC(F)(F)F)NC(c1ccnc(NC(=O)[C@@H](NC(=O)c2ncco2)C2CCC(F)(F)CC2)c1)C1CC1 (stereo partly drawn) [Example 105, N-((1S)-2-((4-(cyclopropyl(4,4,4-trifluorobutanamido)methyl)pyridin-2-yl)amino)-1-(4,4-difluorocyclohexyl)-2-oxoethyl)oxazole-2-carboxamide] |
| 938 | CC(C)(C)OC(=O)N[C@H](C(=O)Nc1cc(CN2C[C@@H](C(F)(F)F)NC2=O)ccn1)C(C1CC1)C1CC1 [Example 104, Tert-butyl ((S)-1,1-dicyclopropyl-3-oxo-3-((4-(((S)-2-oxo-4-(trifluoro-methyl)imidazolidin-1-yl)methyl)pyridin-2-yl)amino)propan-2-yl)carbamate] |
| 401 | [2H]C(c1ccnc(NC(=O)[C@@H](NC(=O)OC(C)(C)C)[C@H]2CC[C@H](C)CC2)c1)N1C[C@@H](C(F)(F)F)NC1=O (stereo partly drawn) [Example 151, Tert-butyl ((1S)-1-((1r,4S)-4-methylcyclohexyl)-2-oxo-2-((4-(((S)-2-oxo-4-(trifluoromethyl)-imidazolidin-1-yl)methyl-d)pyridin-2-yl)amino)ethyl)carbamate] |
| 333 | O=C(N[C@H](C(=O)Nc1cc(CN2C[C@@H](C(F)(F)F)NC2=O)ccn1)C1CCC(F)(F)CC1)c1ccnn1C1CC1 [Example 14, 1-cyclopropyl-N-((S)-1-(4,4-difluorocyclohexyl)-2-oxo-2-((4-(((S)-2-oxo-4-(trifluoromethyl)imidazolidin-1-yl)methyl)pyridin-2-yl)amino)ethyl)-1H-pyrazole-5-carboxamide] |
| 273 | O=C(N[C@H](C(=O)Nc1cc(CN2C[C@@H](C(F)(F)F)NC2=O)ccn1)C1CCC(F)(F)CC1)OCc1ccccc1 (stereo in doubt) [Example 10, Benzyl ((S)-1-(4,4-difluorocyclohexyl)-2-oxo-2-((4-(((S)-2-oxo-4-(trifluoromethyl)imidazolidin-1-yl)methyl)pyridin-2-yl)amino)ethyl)carbamate] |
| 160 | CCc1nonc1C(=O)N[C@H](C(=O)Nc1cc(CN2C[C@@H](C(F)(F)F)NC2=O)ccn1)[C@H]1CC[C@H](F)CC1 (single isomer, unassigned) [Example 290] |
| 75 | CC(C)(OC[C@H](NC(=O)c1nonc1C1CC1)C(=O)Nc1cc(CN2C[C@@H](C(F)(F)F)NC2=O)ccn1)C(F)(F)F [Example 274, 4-cyclopropyl-N-((S)-1-oxo-1-((4-(((S)-2-oxo-4-(trifluoromethyl)imidazolidin-1-yl)methyl)pyridin-2-yl)amino)-3-((1,1,1-trifluoro-2-methylpropan-2-yl)oxy)propan-2-yl)-1,2,5-oxadiazole-3-carboxamide] |
| 65 | CC[C@H](c1ccnc(NC(=O)[C@@H](NC(=O)c2ccnn2C(C)C)C2CCC(F)(F)CC2)c1)N1C[C@@H](C(F)(F)F)NC1=O [Example 215, N-((S)-1-(4,4-difluorocyclohexyl)-2-oxo-2-((4-((R)-1-((S)-2-oxo-4-(trifluoromethyl)imidazolidin-1-yl)propyl)pyridin-2-yl)amino)ethyl)-1-isopropyl-1H-pyrazole-5-carboxamide] |
| 54 | COCC(c1ccnc(NC(=O)C(NC(=O)C(F)(F)c2ccnn2C)C2CCC(C)CC2)c1)N1CC(C(F)(F)F)NC1=O (single isomer, unassigned) [Example 248] |
| 46 | CC[C@H](c1ccnc(NC(=O)[C@@H](NC(=O)c2ccnn2C)C2CCC(F)(F)CC2)c1)N1C[C@@H](C(F)(F)F)NC1=O [Example 214, N-((S)-1-(4,4-difluorocyclohexyl)-2-oxo-2-((4-((R)-1-((S)-2-oxo-4-(trifluoromethyl)imidazolidin-1-yl)propyl)pyridin-2-yl)amino)ethyl)-1-methyl-1H-pyrazole-5-carboxamide] |
| 18 | COCC(c1ccnc(NC(=O)[C@@H](NC(=O)c2nocc2C)[C@H]2CC[C@H](C)CC2)c1)N1C[C@@H](C(F)(F)F)NC1=O (single isomer, unassigned) [Example 120] |
